# Experimental data taken from PubChem BioAssay AID1205 (EPA DSSTox, 2008).
# Active and inactive are the calls of the source.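 How the source made its calls: active means tumour findings in long-term animal cancer tests in more than one sex, species or organ; inactive means no tumour finding and more than one negative test.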
# Test: DSSTox (CPDBAS) Carcinogenic Potency Database Summary MultiCellCall Results
# Conditions: animal carcinogenicity bioassays, multi-cell call summary
# Description: The Carcinogenic Potency Database (CPDB) is a unique and widely used international resource of the results of over 6500 chronic, long-term animal cancer tests on over 1500 chemical substances. The CPDB provides easy access to the bioassay literature, with qualitative and quantitative analyses of both positive and negative experiments that have been published over the past 50 years in the general literature and by the National Cancer Institute/National Toxicology Program. The CPDB standardizes the diverse literature of cancer bioassays that vary widely in protocol, histopathological examination and nomenclature, and in the published author's choices of what information to provide in their papers. Results are reported in the CPDB for tests in rats, mice, hamsters, dogs, and nonhuman primates, and are based on the most positive result among all experiments for each sex-species. The DSSTox CPDBAS (all species) file incorporates data from the CPDB Summary Tables for the full list of over 1500 chemical substances tested in at least one species. A summary MultiCellCall, based on experimental bioassay results of one or more species, is provided in the DSSTox CPDBAS file (see Source URL) for more than 1150 chemical substances.
# Associated TD50 values and tumor site details for the relevant species/sex experiment supporting the overall CPDBAS MultiSiteCall are provided in the full DSSTox CPDBAS file (see Comment) and the corresponding CPDBAS Species Bioassay in PubChem. ActivityScore is computed as follows: multispecies=50, multisex=30, multisite=20, with combination scores computed as sums of these values, e.g. multispecies+multisite=70.
row,Structure (SMILES),outcome
1,ClC(Cl)=C(Cl)Cl,active; multisite active; multisex active; multispecies active
2,O=S(=O)(O)c1ccc(N=Nc2c(O)ccc3cc(S(=O)(=O)O)ccc23)cc1,inactive; multisex inactive; multispecies inactive
3,C=CCNNCC=C,active; multisex active
4,CC1=NN(c2ccccc2)C(=O)C1,inactive; multisex inactive; multispecies inactive
5,[O-]/[N+](=N\O)c1ccccc1,active; multisite active; multisex active; multispecies active
6,CCCNN,active; multisex active
7,NC(=O)Cc1cccc2ccccc12,inactive; multisex inactive
8,Nc1nc(N)nc(-c2ccccc2)n1,inactive; multisex inactive; multispecies inactive
9,O=C1NS(=O)(=O)c2ccccc21,inactive; multisex inactive; multispecies inactive
10,CC1=C(/C=C/C(C)=C/C=C/C(C)=C/C(=O)O)C(C)(C)CCC1,inactive; multisex inactive; multispecies inactive
11,O=C1OC(c2ccc(O)cc2)(c2ccc(O)cc2)c2ccccc21,active; multisite active; multisex active; multispecies active
12,C=CC=C,active; multisite active; multisex active; multispecies active
13,CN(C)C(=S)[S-].CN(C)C(=S)[S-].[Cu+2],inactive; multisex inactive
14,CN(C)C(=S)[S][Bi]([S]C(=S)N(C)C)[S]C(=S)N(C)C,inactive; multisex inactive
15,C=C1C(C)(C)[C@@]2(Cl)C(Cl)[C@]1(Cl)C(Cl)(Cl)C2(Cl)Cl (stereo partly specified),active; multisite active
16,O=S(=O)(c1ccc(Cl)cc1)c1ccc(Cl)cc1,inactive; multisex inactive; multispecies inactive
17,O=[N+]([O-])c1ccc(Oc2ccc(Cl)cc2Cl)cc1,active; multisite active; multisex active; multispecies active
18,CN(CCO)N=O,active; multisite active
19,CCCCC1C(=O)N(c2ccccc2)N(c2ccccc2)C1=O,active; multisite active; multisex active; multispecies active
20,CC1(C)S[C@@H]2[C@H](NC(=O)[C@H](N)c3ccccc3)C(=O)N2[C@H]1C(=O)O,inactive; multisex inactive; multispecies inactive
21,C[C@H]1CCCC(=O)CCC/C=C/c2cc(O)cc(O)c2C(=O)O1,active; multisite active; multisex active
22,Nc1cc(Cl)c(N)c(Cl)c1,active; multisex active
23,Cc1cccc(OCC(O)CNC(C)(C)C)c1C (stereo unspecified),inactive; multisex inactive
24,C=C(C)[C@H]1CC=C(C)C(=O)C1,inactive; multisex inactive

row,Structure (SMILES),outcome
1,CN(C)CCOC(c1ccccc1)c1ccccc1,inactive; multisex inactive; multispecies inactive
2,O=NN1CCCCC1,active; multisite active; multisex active; multispecies active
3,CCN(Cc1cccc(S(=O)(=O)O)c1)c1ccc(C(=C2C=CC(=[N+](CC)Cc3cccc(S(=O)(=O)O)c3)C=C2)c2ccccc2S(=O)(=O)[O-])cc1,inactive; multisex inactive; multispecies inactive
4,[C-]1=CC=CC1.[C-]1=CC=CC1.[Cl-].[Cl-].[Ti+4],inactive; multisex inactive
5,NNC(=O)c1cccnc1,active; multisex active
6,Clc1ccc(Sc2cc(Cl)c(Cl)cc2Cl)cc1,inactive; multisex inactive
7,CN(C)C(=O)NC1CC2CC1C1CCCC21 (stereo unspecified),inactive; multisex inactive
8,O=[N+]([O-])c1ccc2c(c1)Cc1ccccc1-2,active; multisite active
9,CC(Oc1c(Cl)cccc1Cl)C1=NCCN1 (stereo unspecified),inactive; multisex inactive
10,ClC(Cl)(Cl)C(Cl)(Cl)Cl,active; multisite active; multisex active; multispecies active
11,COc1cc(NC(=O)C(N=Nc2ccc(-c3ccc(N=NC(C(C)=O)C(=O)Nc4cc(OC)c(Cl)cc4OC)c(Cl)c3)cc2Cl)C(C)=O)c(OC)cc1Cl (stereo unspecified),inactive; multispecies inactive
12,COc1ccc(N)cc1N,active; multisite active; multisex active; multispecies active
13,O=P(=O)O,inactive; multisex inactive
14,COC(=O)C1=C(C)NC(C)=C(C(=O)OCC(C)(C)CN(C)Cc2ccccc2)C1c1cc([N+](=O)[O-])ccc1F (stereo unspecified),inactive; multisex inactive
15,O=c1ccc2ccccc2o1,active; multisite active; multisex active; multispecies active
16,S=C(SN1CCOCC1)N1CCOCC1,active; multisite active; multisex active
17,CN(C)CCN(C)N=O,active; multisite active; multisex active
18,C/C=C(/C)C(=O)O[C@H]1CCN2CC=C(COC(=O)[C@](O)([C@H](C)OC)C(C)(C)O)[C@H]12,active; multisite active; multisex active
19,CCN(CC(F)(F)F)N=O,active; multisite active
20,BrC(Br)Br,active; multisex active
21,Cc1ccc(O)c(O)c1,active; multisex active
22,CCc1cccc2c3c([nH]c12)C(CC)(CC(=O)O)OCC3 (stereo unspecified),inactive; multisex inactive; multispecies inactive
23,CC(=O)Nc1ccc(C(=O)CCl)cc1,inactive; multisex inactive; multispecies inactive
24,COC(C(=O)O)c1ccccc1 (stereo unspecified),inactive; multisex inactive

row,Structure (SMILES),outcome
1,ClCC1CO1 (stereo unspecified),active; multisex active
2,Cn1c(=O)c2c(ncn2C)n(C)c1=O,inactive; multisex inactive; multispecies inactive
3,CN(C)N=O,active; multisite active; multisex active; multispecies active
4,Oc1ccc(-c2ccccc2)cc1,inactive; multisex inactive
5,Nc1c(Cl)cc(Cl)cc1Cl,active; multisite active
6,Clc1cc2c(cc1Cl)Oc1cc(Cl)c(Cl)cc1O2,active; multisite active; multisex active; multispecies active
7,COC(=O)C1=CCCN(C)C1,active; multisite active; multisex active
8,O=C(Nc1nc(-c2ccc([N+](=O)[O-])o2)cs1)C(F)(F)F,active; multisite active; multispecies active
9,C1CCNCC1,inactive; multisex inactive
10,C[C@@H]1CCC[C@H](C)N1CCCC(O)(c1ccccc1)c1ccccn1 (stereo partly specified),inactive; multisex inactive; multispecies inactive
11,O.[Cd+2].[Cl-].[Cl-],inactive; multisex inactive
12,OCC(CO)(CBr)CBr,active; multisite active; multisex active; multispecies active
13,C=CC,inactive; multisex inactive; multispecies inactive
14,CC(Cl)(Cl)Cl,inactive; multisex inactive; multispecies inactive
15,NC(=O)N(CCc1ccccc1)N=O,active; multisite active; multisex active
16,CNNC,active; multisite active; multisex active; multispecies active
17,CC[C@H](C)C(=O)O[C@H]1C[C@@H](C)C=C2C=C[C@H](C)[C@H](CC[C@@H]3C[C@@H](O)CC(=O)O3)[C@H]21,active; multisite active; multisex active
18,COC(=O)C(c1ccccc1)C1CCCCN1N=O (stereo unspecified),inactive; multisex inactive
19,Oc1c(Cl)cc(Cl)cc1Sc1cc(Cl)cc(Cl)c1O,inactive; multisex inactive
20,Clc1c(Cl)c(Cl)c(Cl)c(Cl)c1Cl,active; multisite active; multisex active; multispecies active
21,Cc1cccc(C)c1NC(=O)CN1CCCC1=O,inactive; multisex inactive; multispecies inactive
22,CC1=C(C)C(=O)C(C(CCCCCC(=O)O)c2ccccc2)=C(C)C1=O (stereo unspecified),inactive; multisex inactive
23,[O-][Br+2]([O-])O,active; multisite active; multisex active; multispecies active
